Literature values as cited in patent US7943127B2 (priority 2004, dated 2011).

Details: in vivo, iv

COc1cc(CNC(=O)CCCC/C=C/C(C)C)ccc1O [Capsaicin, (E)-N-((4-Hydroxy-3-methoxyphenyl)-methyl)-8-methyl-6-nonenamide]
lethal toxic dose: about 0.56 mg/kg
